Patent US20100267561A1, “HERBICIDAL PYRIDAZINONE DERIVATIVES” (priority 2007, published 2010)

Key:
Test in all cases: Test B pre-/postemergence plant response
Format in all cases: in vivo
[1] = tested on: lambsquarters (Chenopodium album)
How it was run: (§1)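 Visual scoring from 0 (no effect) to 100 (complete control) against untreated controls was done 13 to 15 days after greenhouse treatment. Chemicals were formulated in a surfactant-containing non-phytotoxic solvent and applied to soil preemergence or to 1- to 4-leaf (2-18 cm) plants postemergence.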

[2] = tested on: goosegrass (Eleusine indica)
How it was run: as §1

[3] = tested on: Italian ryegrass (Lolium multiflorum)
How it was run: as §1

[4] = tested on: surinam grass (Brachiaria decumbens)
How it was run: as §1

soybean (Glycine max) = tested on: soybean (Glycine max)
How it was run: as §1

[5] = tested on: cocklebur (Xanthium strumarium); details: for Cocklebur plant response rating: 8 g ai/ha
How it was run: as §1

[6] = tested on: morningglory (Ipomoea coccinea)
How it was run: as §1

[7] = tested on: common ragweed (Ambrosia elation)
How it was run: as §1

[8] = tested on: velvetleaf (Abutilon theophrasti)
How it was run: as §1

kochia (Kochia scoparia) = details: for Kochia plant response rating: postemergence, 0-100 scale
How it was run: as §1

[9] = tested on: wheat (Triticum aestivum)
How it was run: as §1

[10] = tested on: bermudagrass (Cynodon dactylon); details: for Bermudagrass plant response rating: 8 g ai/ha
How it was run: as §1

[11] = tested on: johnsongrass (Sorghum halepense)
How it was run: as §1

[12] = tested on: common (oilseed) sunflower (Helianthus annuus); details: Preemergence
How it was run: as §1

[13] = 8 g ai/ha, postemergence, 0-100 scale
[14] = Postemergence, 16 g ai/ha, scale 0 to 100
[15] = Postemergence, 31 g ai/ha, scale 0 to 100, 0 no effect, 100 complete control
[16] = Postemergence, 62 g ai/ha, scale 0 to 100, 0 no effect, 100 complete control
[17] = Preemergence, 16 g ai/ha, scale 0 to 100 (0 no effect, 100 complete control)
[18] = Preemergence, 31 g ai/ha, 0 to 100 scale, 0 no effect, 100 complete control
[19] = Preemergence, 62 g ai/ha, scale 0 to 100
[20] = Preemergence, 8 g ai/ha, scale 0 to 100
[21] = Preemergence, scale 0 to 100 (0 no effect, 100 complete control)
[22] = 16 g ai/ha, postemergence, 0-100 scale
[23] = Postemergence, 31 g ai/ha, scale 0 to 100
[24] = Preemergence, 31 g ai/ha, scale 0 to 100 (0 no effect, 100 complete control)
[25] = Preemergence, 62 g ai/ha, 0 to 100 scale, 0 no effect, 100 complete control
[26] = Preemergence, 16 g ai/ha, scale 0 to 100

SMILES: Cc1cc(-c2ccc(Cl)cc2)nn1-c1c(OS(C)(=O)=O)cnn(C)c1=O [Compound 36]
- Lambsquarters plant response rating [1, 13]: 0
- Plant response rating, Lambsquarters [1, 14]: 0
- Plant response rating, Lambsquarters [1, 15]: 0
- Plant response rating, Lambsquarters [1, 16]: 0
- Plant response rating, Lambsquarters [1, 17]: 0
- Plant response rating, Lambsquarters [1, 18]: 0
- Plant response rating, Lambsquarters [1, 19]: 0
- Lambsquarters plant response rating [1, 20]: 0
- Goosegrass plant response rating [2, 13]: 0
- Plant response rating, Goosegrass [2, 14]: 100
- Plant response rating, Goosegrass [2, 15]: 100
- Plant response rating, Goosegrass [2, 16]: 100
- Plant response rating, Goosegrass [2, 17]: 100
- Plant response rating, Goosegrass [2, 18]: 100
- Plant response rating, Goosegrass [2, 19]: 100
- Goosegrass plant response rating [2, 20]: 80
- Ryegrass, Italian plant response rating [3, 13]: 10
- Plant response rating, Ryegrass, Italian [3, 14]: 30
- Plant response rating, Ryegrass, Italian [3, 15]: 65
- Plant response rating, Ryegrass, Italian [3, 16]: 95
- Plant response rating, Ryegrass, Italian [3, 17]: 98
- Plant response rating, Ryegrass, Italian [3, 18]: 100
- Plant response rating, Ryegrass, Italian [3, 19]: 100
- Ryegrass, Italian plant response rating [3, 20]: 20
- Surinam Grass plant response rating [4, 13]: 70
- Plant response rating, Surinam Grass [4, 14]: 85
- Plant response rating, Surinam Grass [4, 16]: 100
- Plant response rating, Surinam Grass [4, 17]: 100
- Plant response rating, Surinam Grass [4, 18]: 100
- Plant response rating, Surinam Grass [4, 19]: 100
- Surinam Grass plant response rating [4, 20]: 70
- Soybean plant response rating (soybean (Glycine max); [13]): 0
- Plant response rating, Soybean (soybean (Glycine max); [14]): 0
- Plant response rating, Soybean (soybean (Glycine max); [16]): 0
- Plant response rating, Soybean (soybean (Glycine max); [17]): 0
- Plant response rating, Soybean (soybean (Glycine max); [18]): 0
- Plant response rating, Soybean (soybean (Glycine max); [19]): 0
- Soybean plant response rating (soybean (Glycine max); [20]): 0
- Cocklebur plant response rating ([5]; postemergence, 0-100 scale): 0
- Plant response rating, Cocklebur [5, 14]: 0
- Plant response rating, Cocklebur [5, 15]: 0
- Plant response rating, Cocklebur [5, 16]: 0
- Plant response rating, Cocklebur [5, 17]: 0
- Plant response rating, Cocklebur [5, 18]: 0
- Plant response rating, Cocklebur [5, 19]: 0
- Cocklebur plant response rating ([5]; Preemergence, scale 0 to 100): 0
- Morningglory plant response rating [6, 13]: 0
- Plant response rating, Morningglory [6, 14]: 0
- Plant response rating, Morningglory [6, 15]: 0
- Plant response rating, Morningglory [6, 16]: 0
- Plant response rating, Morningglory [6, 17]: 0
- Plant response rating, Morningglory [6, 18]: 0
- Plant response rating, Morningglory [6, 19]: 0
- Morningglory plant response rating [6, 20]: 0
- Ragweed plant response rating [7, 13]: 0
- Plant response rating, Ragweed [7, 14]: 0
- Plant response rating, Ragweed [7, 15]: 0
- Plant response rating, Ragweed [7, 16]: 0
- Plant response rating, Ragweed [7, 17]: 0
- Plant response rating, Ragweed [7, 18]: 0
- Plant response rating, Ragweed [7, 19]: 0
- Ragweed plant response rating [7, 20]: 0
- Velvetleaf plant response rating [8, 13]: 0
- Plant response rating, Velvetleaf [8, 14]: 0
- Plant response rating, Velvetleaf [8, 16]: 0
- Plant response rating, Velvetleaf [8, 17]: 0
- Plant response rating, Velvetleaf [8, 18]: 0
- Plant response rating, Velvetleaf [8, 19]: 0
- Velvetleaf plant response rating [8, 20]: 0
- Kochia plant response rating (kochia (Kochia scoparia); 8 g ai/ha): 0
- Plant response rating, Kochia (kochia (Kochia scoparia); [14]): 0
- Plant response rating, Kochia (kochia (Kochia scoparia); [15]): 0
- Plant response rating, Kochia (kochia (Kochia scoparia); [16]): 0
- Wheat plant response rating [9, 13]: 0
- Plant response rating, Wheat [9, 14]: 5
- Plant response rating, Wheat [9, 16]: 85
- Plant response rating, Wheat [9, 17]: 0
- Plant response rating, Wheat [9, 18]: 5
- Plant response rating, Wheat [9, 19]: 60
- Wheat plant response rating [9, 20]: 0
- Bermudagrass plant response rating ([10]; postemergence, 0-100 scale): 40
- Plant response rating, Bermudagrass [10, 14]: 80
- Plant response rating, Bermudagrass [10, 15]: 100
- Plant response rating, Bermudagrass [10, 16]: 100
- Bermudagrass plant response rating [10, 21]: 98
- Plant response rating, Bermudagrass [10, 17]: 100
- Plant response rating, Bermudagrass [10, 18]: 100
- Plant response rating, Bermudagrass [10, 19]: 100
- Johnsongrass plant response rating [11, 13]: 0
- Plant response rating, Johnsongrass [11, 14]: 50
- Plant response rating, Johnsongrass [11, 15]: 95
- Plant response rating, Johnsongrass [11, 16]: 100
- Plant response rating, Johnsongrass [11, 18]: 40
- Plant response rating, Johnsongrass [11, 19]: 100
- Johnsongrass plant response rating [11, 20]: 0
- Plant response rating, Sunflower ([12]; 16 g ai/ha, scale 0 to 100 (0 no effect, 100 complete control)): 0
- Plant response rating, Sunflower ([12]; 31 g ai/ha, 0 to 100 scale, 0 no effect, 100 complete control): 0
- Plant response rating, Sunflower ([12]; 62 g ai/ha, scale 0 to 100): 0
- Sunflower plant response rating ([12]; 8 g ai/ha, scale 0 to 100): 0

SMILES: CCc1cc(-c2ccc(Br)cc2)nn1-c1c(O)cnn(C)c1=O [Compound 61]
- Lambsquarters plant response rating [1, 13]: 0
- Lambsquarters plant response rating [1, 22]: 0
- Plant response rating, Lambsquarters [1, 23]: 0
- Plant response rating, Lambsquarters [1, 16]: 0
- Plant response rating, Lambsquarters [1, 24]: 0
- Plant response rating, Lambsquarters [1, 25]: 0
- Lambsquarters plant response rating [1, 20]: 0
- Lambsquarters plant response rating [1, 26]: 0
- Goosegrass plant response rating [2, 13]: 98
- Goosegrass plant response rating [2, 22]: 100
- Plant response rating, Goosegrass [2, 23]: 100
- Plant response rating, Goosegrass [2, 16]: 100
- Plant response rating, Goosegrass [2, 24]: 100
- Plant response rating, Goosegrass [2, 25]: 100
- Goosegrass plant response rating [2, 20]: 80
- Goosegrass plant response rating [2, 26]: 100
- Ryegrass, Italian plant response rating [3, 13]: 100
- Ryegrass, Italian plant response rating [3, 22]: 100
- Plant response rating, Ryegrass, Italian [3, 23]: 100
- Plant response rating, Ryegrass, Italian [3, 16]: 100
- Plant response rating, Ryegrass, Italian [3, 24]: 100
- Plant response rating, Ryegrass, Italian [3, 25]: 100
- Ryegrass, Italian plant response rating [3, 20]: 85
- Ryegrass, Italian plant response rating [3, 26]: 100
- Surinam Grass plant response rating [4, 13]: 100
- Surinam Grass plant response rating [4, 22]: 100
- Plant response rating, Surinam Grass [4, 23]: 100
- Plant response rating, Surinam Grass [4, 16]: 100
- Plant response rating, Surinam Grass [4, 24]: 100
- Plant response rating, Surinam Grass [4, 25]: 100
- Surinam Grass plant response rating [4, 20]: 85
- Surinam Grass plant response rating [4, 26]: 100
- Plant response rating, Soybean (soybean (Glycine max); [24]): 0
- Plant response rating, Soybean (soybean (Glycine max); [25]): 0
- Soybean plant response rating (soybean (Glycine max); [20]): 0
- Soybean plant response rating (soybean (Glycine max); [26]): 0
- Cocklebur plant response rating ([5]; postemergence, 0-100 scale): 0
- Plant response rating, Cocklebur [5, 14]: 0
- Plant response rating, Cocklebur [5, 23]: 0
- Plant response rating, Cocklebur [5, 16]: 0
- Plant response rating, Cocklebur [5, 17]: 0
- Plant response rating, Cocklebur [5, 24]: 0
- Plant response rating, Cocklebur [5, 25]: 0
- Cocklebur plant response rating ([5]; Preemergence, scale 0 to 100): 0
- Morningglory plant response rating [6, 13]: 0
- Morningglory plant response rating [6, 22]: 0
- Plant response rating, Morningglory [6, 23]: 0
- Plant response rating, Morningglory [6, 16]: 0
- Plant response rating, Morningglory [6, 24]: 0
- Plant response rating, Morningglory [6, 25]: 0
- Morningglory plant response rating [6, 20]: 0
- Morningglory plant response rating [6, 26]: 0
- Ragweed plant response rating [7, 13]: 0
- Ragweed plant response rating [7, 22]: 0
- Plant response rating, Ragweed [7, 23]: 0
- Plant response rating, Ragweed [7, 16]: 0
- Plant response rating, Ragweed [7, 24]: 0
- Plant response rating, Ragweed [7, 25]: 0
- Ragweed plant response rating [7, 20]: 0
- Ragweed plant response rating [7, 26]: 0
- Velvetleaf plant response rating [8, 13]: 0
- Velvetleaf plant response rating [8, 22]: 0
- Plant response rating, Velvetleaf [8, 23]: 0
- Plant response rating, Velvetleaf [8, 16]: 0
- Plant response rating, Velvetleaf [8, 24]: 0
- Plant response rating, Velvetleaf [8, 25]: 0
- Velvetleaf plant response rating [8, 20]: 0
- Velvetleaf plant response rating [8, 26]: 0
- Kochia plant response rating (kochia (Kochia scoparia); 8 g ai/ha): 0
- Kochia plant response rating (kochia (Kochia scoparia); 16 g ai/ha): 0
- Plant response rating, Kochia (kochia (Kochia scoparia); [23]): 35
- Plant response rating, Kochia (kochia (Kochia scoparia); [16]): 45
- Plant response rating, Kochia (kochia (Kochia scoparia); [24]): 0
- Plant response rating, Kochia (kochia (Kochia scoparia); [25]): 0
- Wheat plant response rating [9, 13]: 90
- Wheat plant response rating [9, 22]: 95
- Plant response rating, Wheat [9, 23]: 98
- Plant response rating, Wheat [9, 16]: 100
- Plant response rating, Wheat [9, 24]: 90
- Plant response rating, Wheat [9, 25]: 95
- Wheat plant response rating [9, 26]: 30
- Bermudagrass plant response rating ([10]; postemergence, 0-100 scale): 55
- Plant response rating, Bermudagrass [10, 14]: 70
- Plant response rating, Bermudagrass [10, 23]: 95
- Plant response rating, Bermudagrass [10, 16]: 100
- Bermudagrass plant response rating [10, 21]: 55
- Plant response rating, Bermudagrass [10, 17]: 80
- Plant response rating, Bermudagrass [10, 24]: 90
- Plant response rating, Bermudagrass [10, 25]: 95
- Johnsongrass plant response rating [11, 13]: 65
- Johnsongrass plant response rating [11, 22]: 100
- Plant response rating, Johnsongrass [11, 23]: 100
- Plant response rating, Johnsongrass [11, 16]: 100
- Plant response rating, Johnsongrass [11, 24]: 100
- Plant response rating, Johnsongrass [11, 25]: 100
- Johnsongrass plant response rating [11, 20]: 90
- Johnsongrass plant response rating [11, 26]: 95
- Plant response rating, Sunflower ([12]; 31 g ai/ha, scale 0 to 100 (0 no effect, 100 complete control)): 0
- Plant response rating, Sunflower ([12]; 62 g ai/ha, 0 to 100 scale, 0 no effect, 100 complete control): 0
- Sunflower plant response rating ([12]; 8 g ai/ha, scale 0 to 100): 0
- Sunflower plant response rating ([12]; 16 g ai/ha, scale 0 to 100): 0
